Reference: patent US20230085307A1, “PYRIDAZINONE COMPOUND AND HERBICIDE” (NISSAN CHEMICAL CORPORATION, priority 2019, published 2023)

What was measured:
velvetleaf = assay: Test Example 5: herbicidal effect by foliage application, plastic box (Table 20, symbol M); format: in vivo, velvetleaf (Abutilon theophrasti); settings: foliage application; for herbicidal effect on velvetleaf (M): 320 g/ha, three weeks after application
Summary of the method: (§1)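 Post-emergence foliar test in sterilized diluvial soil. Compound applied as water-diluted emulsion at a predetermined rate to 14-day-old plants; evaluation at three weeks.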

lambsquarters = assay: Test Example 5: herbicidal effect by foliage application, plastic box (Table 20, symbol O); format: in vivo, lambsquarters (Chenopodium album); settings: foliage application; for herbicidal effect on lambsquarters (O): 320 g/ha, three weeks after application
Summary of the method: as §1

wild oat = assay: Test Example 5: herbicidal effect by foliage application, plastic box (Table 20, symbol I); format: in vivo, wild oat (Avena fatua); settings: foliage application; for herbicidal effect on wild oat (I): 320 g/ha, three weeks after application
Summary of the method: as §1

southern crabgrass = assay: Test Example 5: herbicidal effect by foliage application, plastic box (Table 20, symbol F); format: in vivo, southern crabgrass (Digitaria ciliaris); settings: foliage application; for herbicidal effect on southern crabgrass (F): 320 g/ha, three weeks after application
Summary of the method: as §1

green foxtail = assay: Test Example 5: herbicidal effect by foliage application, plastic box (Table 20, symbol G); format: in vivo, green foxtail (Setaria viridis); settings: foliage application; for herbicidal effect on green foxtail (G): 320 g/ha, three weeks after application
Summary of the method: as §1

blackgrass = assay: Test Example 5: herbicidal effect by foliage application, plastic box (Table 20, symbol J); format: in vivo, blackgrass (Alopecurus myosuroides); settings: foliage application; for herbicidal effect on blackgrass (J): 320 g/ha, three weeks after application
Summary of the method: as §1

barnyard grass [1] = assay: Test Example 5: herbicidal effect by foliage application, plastic box (Table 20, symbol H); format: in vivo, barnyard grass (Echinochloa crus-galli); settings: foliage application; for herbicidal effect on barnyard grass (H): 320 g/ha, three weeks after application
Summary of the method: as §1

Italian ryegrass = assay: Test Example 5: herbicidal effect by foliage application, plastic box (Table 20, symbol K); format: in vivo, Italian ryegrass (Lolium multiflorum); settings: foliage application; for herbicidal effect on Italian ryegrass (K): 320 g/ha, three weeks after application
Summary of the method: as §1

false cleavers = assay: Test Example 5: herbicidal effect by foliage application, plastic box (Table 20, symbol Q); format: in vivo, false cleavers (Galium spurium); settings: foliage application; for herbicidal effect on false cleavers (Q): 320 g/ha, three weeks after application
Description: [Test Example 5] Herbicidal Effect Test by Foliage Application
Sterilized diluvial soil was placed in a plastic box having a length of 21 cm, a width of 13 cm, and a depth of 7 cm. The seeds of each of southern crabgrass, green foxtail, barnyard grass, wild oat, blackgrass, Italian ryegrass, windgrass, velvetleaf, redroot pigweed, lambsquarters, chickweed, false cleavers, persian speedwell, corn, soybean, rice, wheat, beet, and rapeseed were sowed in a spot-like manner and covered with the soil having a thickness of about 1.5 cm. Thereafter, the plants were grown in a greenhouse at 25° C. to 30° C. After 14-day growth of the plants, the emulsion agent of the compound of the present invention prepared according to Formulation Example 2 was diluted with water so as to achieve a predetermined herbicide amount, and the diluted emulsion agent was uniformly applied to a foliage part with a small-sized spray. Three weeks after the herbicide application, the effect of the herbicide on each plant was evaluated according to the criteria of Test Example 1.

persian speedwell = assay: Test Example 5: herbicidal effect by foliage application, plastic box (Table 20, symbol R); format: in vivo, Persian speedwell (Veronica persica); settings: foliage application; for herbicidal effect on persian speedwell (R): 320 g/ha, three weeks after application
Summary of the method: as §1

windgrass = assay: Test Example 5: herbicidal effect by foliage application, plastic box (Table 20, symbol L); format: in vivo, windgrass (Apera spica-venti); settings: foliage application; for herbicidal effect on windgrass (L): 320 g/ha, three weeks after application
Summary of the method: as §1

rice flat sedge = assay: Test Example 3: herbicidal effect by foliage application, Wagner pot (Table 18, symbol E); format: in vivo, rice flat sedge (Cyperus iria); settings: 320 g/ha
Summary of the method: (§2)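 Plants were sown in alluvial soil held under 0.1–0.5 cm standing water and grown 14 days in a greenhouse at 25–30 °C. An emulsifiable formulation, water-diluted to the set dose, was then sprayed onto the foliage, and effects were scored three weeks later using previously defined criteria.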

barnyard grass [2] = assay: Test Example 3: herbicidal effect by foliage application, Wagner pot (Table 18, symbol H); format: in vivo, barnyard grass (Echinochloa crus-galli); settings: 320 g/ha
Summary of the method: as §2

Chinese sprangletop = assay: Test Example 3: herbicidal effect by foliage application, Wagner pot (Table 18, symbol D); format: in vivo, chinese sprangletop (Leptochloa chinensis); settings: 320 g/ha
Summary of the method: as §2

[3] = 270 g/ha, 3 weeks after application

For `COCCOCOc1c(C)nn(C)c(=O)c1-c1c(-c2ccc(OCC(=O)OC)cc2)sc2ccccc12` [1-233], the “effect on velvetleaf (M)” value (velvetleaf; [3]) was 0 (Herbicidal rate of 5% or less (almost no effect)), the “effect on lambsquarters (O)” value (lambsquarters; [3]) was 2 (Herbicidal rate of 20% or more and less than 40%) and the “effect on wild oat (I)” value (wild oat; [3]) was 0 (Herbicidal rate of 5% or less (almost no effect)). For the same molecule, the “effect on southern crabgrass (F)” value (southern crabgrass; [3]) was 0 (Herbicidal rate of 5% or less (almost no effect)), the “effect on green foxtail (G)” value (green foxtail; [3]) was 0 (Herbicidal rate of 5% or less (almost no effect)) and the “effect on blackgrass (J)” value (blackgrass; [3]) was 0 (Herbicidal rate of 5% or less (almost no effect)). For the same molecule, the “effect on barnyard grass (H)” value (barnyard grass [1]; [3]) was 0 (Herbicidal rate of 5% or less (almost no effect)), the “effect on Italian ryegrass (K)” value (Italian ryegrass; [3]) was 0 (Herbicidal rate of 5% or less (almost no effect)) and the “effect on false cleavers (Q)” value (false cleavers; [3]) was 0 (Herbicidal rate of 5% or less (almost no effect)). For the same molecule, the “effect on persian speedwell (R)” value (persian speedwell; [3]) was 0 (Herbicidal rate of 5% or less (almost no effect)) and the “effect on windgrass (L)” value (windgrass; [3]) was 0 (Herbicidal rate of 5% or less (almost no effect)).

`COc1cc2sc(-c3ccc(F)cc3)c(-c3c(O)c(C)nn(C)c3=O)c2cc1OC` [5-057] was tested, and the “herbicidal effect on velvetleaf (M)” value (velvetleaf) was 0 (Herbicidal rate of 5% or less (almost no effect)), the “herbicidal effect on lambsquarters (O)” value (lambsquarters) was 0 (Herbicidal rate of 5% or less (almost no effect)) and the “herbicidal effect on wild oat (I)” value (wild oat) was 0 (Herbicidal rate of 5% or less (almost no effect)). The “herbicidal effect on southern crabgrass (F)” value (southern crabgrass) was 0 (Herbicidal rate of 5% or less (almost no effect)), the “herbicidal effect on green foxtail (G)” value (green foxtail) was 0 (Herbicidal rate of 5% or less (almost no effect)) and the “herbicidal effect on blackgrass (J)” value (blackgrass) was 0 (Herbicidal rate of 5% or less (almost no effect)). The “herbicidal effect on barnyard grass (H)” value (barnyard grass [1]) was 0 (Herbicidal rate of 5% or less (almost no effect)), the “herbicidal effect on Italian ryegrass (K)” value (Italian ryegrass) was 0 (Herbicidal rate of 5% or less (almost no effect)) and the “herbicidal effect on false cleavers (Q)” value (false cleavers) was 0 (Herbicidal rate of 5% or less (almost no effect)). For the same molecule, the “herbicidal effect on persian speedwell (R)” value (persian speedwell) was 4 (Herbicidal rate of 70% or more and less than 90%) and the “herbicidal effect on windgrass (L)” value (windgrass) was 0 (Herbicidal rate of 5% or less (almost no effect)).

For `CCOc1ccccc1-c1cc2c(-c3c(O)c(C)nn(C)c3=O)c(-c3ccccc3OCC)sc2cc1OC` [5-079], the “herbicidal effect on velvetleaf (M)” value (velvetleaf) was 0 (Herbicidal rate of 5% or less (almost no effect)), the “herbicidal effect on rice flat sedge (E)” value (rice flat sedge) was 0 (Herbicidal rate of 5% or less (almost no effect)) and the “herbicidal effect on lambsquarters (O)” value (lambsquarters) was 0 (Herbicidal rate of 5% or less (almost no effect)). For the same molecule, the “herbicidal effect on wild oat (I)” value (wild oat) was 0 (Herbicidal rate of 5% or less (almost no effect)), the “herbicidal effect on southern crabgrass (F)” value (southern crabgrass) was 0 (Herbicidal rate of 5% or less (almost no effect)) and the “herbicidal effect on barnyard grass (H)” value (barnyard grass [2]) was 3 (Herbicidal rate of 40% or more and less than 70%). The “herbicidal effect on green foxtail (G)” value (green foxtail) was 0 (Herbicidal rate of 5% or less (almost no effect)), the “herbicidal effect on blackgrass (J)” value (blackgrass) was 0 (Herbicidal rate of 5% or less (almost no effect)) and the “herbicidal effect on barnyard grass (H)” value (barnyard grass [1]) was 0 (Herbicidal rate of 5% or less (almost no effect)). For the same molecule, the “herbicidal effect on Chinese sprangletop (D)” value (Chinese sprangletop) was 0 (Herbicidal rate of 5% or less (almost no effect)), the “herbicidal effect on Italian ryegrass (K)” value (Italian ryegrass) was 0 (Herbicidal rate of 5% or less (almost no effect)) and the “herbicidal effect on false cleavers (Q)” value (false cleavers) was 5 (Herbicidal rate of 90% or more (almost completely withered)). The “herbicidal effect on persian speedwell (R)” value (persian speedwell) was 0 (Herbicidal rate of 5% or less (almost no effect)) and the “herbicidal effect on windgrass (L)” value (windgrass) was 0 (Herbicidal rate of 5% or less (almost no effect)).
